Test results as given in patent US4310518A, “Cyclic hexapeptide somatostatin analogs” (Merck & Co., Inc., priority 1980, dated 1982).
Square brackets hold non-standard residues; d marks the D form. Peptide text beside a SMILES is read from it. NMeF = CN[C@@H](Cc1ccccc1)C(=O)O; NMeI = CC[C@H](C)[C@H](NC)C(=O)O; NMeL = CN[C@@H](CC(C)C)C(=O)O; NMeA = CN[C@@H](C)C(=O)O; dNMeA = CN[C@H](C)C(=O)O; Sar = CNCC(=O)O

Columns and labels:
[1] = tested on: pentagastrin evoked gastric secretion; assay: Inhibition of pentagastrin evoked gastric secretion in the chronic fistula dog; type: in vivo; conditions: Dose 0.8 μg/ml./min., infusion 0-60 min., relative to placebo; for Gastric Secretion % Inhibition Acid Concentration 0-30 / Gastric Secretion % Inhibition Vol. 0-30: 0-30 min; for Gastric Secretion % Inhibition Acid Concentration 30-60 / Gastric Secretion % Inhibition Vol. 30-60: 30-60 min; for Gastric Secretion % Inhibition Acid Concentration 60-90 / Gastric Secretion % Inhibition Vol. 60-90: 60-90 min; for Gastric Secretion % Inhibition Acid Concentration 90-120 / Gastric Secretion % Inhibition Vol. 90-120: 90-120 min; for Gastric Secretion % Inhibition Vol. 0-30 / Gastric Secretion % Inhibition Vol. 30-60 / Gastric Secretion % Inhibition Vol. 60-90 / Gastric Secretion % Inhibition Vol. 90-120: output volume
Procedure: The effects of the instant cyclichexapeptide analogs of somatostatin are determined by the following procedure.
Compounds were tested for their ability to inhibit pentagastrin evoked gastric secretion in the chronic fistula dog. Female beagle dogs with a chronic gastric fistula were given pentagastrin (2.5 μg./kg./hour, i.v. from -60 to 120 min.) and gastric outputs were collected via the fistula cannula. Samples were analyzed at 30 minute intervals for volume (ml.) and titratable acid (mEq/L) (Titration to pH 7 with 0.01 N NaOH); total acid output (mEq) was calculated as the production of output volume and acid concentration. Test compounds were infused at a constant rate from 0 to 60 minutes. Data have been expressed as percent change of total acid output relative to a placebo trial in the same animals.

[2] = tested on: growth hormone release from rat pituitary cells; assay: In vitro test for the inhibition of growth hormone release in cultured rat pituitary cells; type: cell-based; conditions: multiples or fractions of the effect of somatostatin (=1), fiducial limits in parentheses, 4 hours incubation
Procedure: The instant cyclic hexapeptide analogs of somatostatin are tested and compared with the effects of somatostatin in an in vitro test for the inhibition of growth hormone. The test is described as follows:
Rat pituitaries were isolated according to the procedures of Vale and Grant "In vitro Pituitary Hormone Secretion Assay for Hypophysiotropic Substances" in Methods in Enzymology. Vol. XXXVII, eds. O'Malley, B. W. and Hardman, J. G. (Academic Press, Inc., New York) pp. 5-93 (1975).
After 4 days in culture, the cells were washed and incubated for 4 hours in Dulbecco-modified Eagle's medium in the presence or absence of graded doses of each analog of somatostatin. The medium was then collected for subsequent growth hormone determination by a double antibody radioimmunoassay for rat growth hormone."
The test results for some of the compounds of this invention are recorded below with the results for somatostatin listed first and given the arbitrary value of 1. The results for the instant compounds are given as multiples or fractions of the effect of somatostatin. The numbers in parentheses are the fiducial limits for the number preceding. The first of the instant compounds listed is the compound prepared in Examples 1-5. The compound is written slightly different, however, to conform to the order of the amino acids found in somatostatin.

**Q.** How did the “Gastric Secretion % Inhibition Acid Concentration 0-30” value [1] turn out when `C[C@@H](O)[C@@H]1NC(=O)[C@H](CCCCN)NC(=O)[C@@H](Cc2c[nH]c3ccccc23)NC(=O)[C@H](Cc2ccccc2)NC(=O)[C@H](C)N(C)C(=O)[C@H](Cc2ccccc2)NC1=O` [Cyclo(D-Trp-Lys-Thr-Phe-N-Me-Ala-Phe)] (cyclo(F[NMeA]F[dW]KT)) was run?
**A.** Its value is 15%.

**Q.** And the “Gastric Secretion % Inhibition Acid Concentration 30-60” value [1]?
**A.** The value was 41%.

**Q.** What about the “Gastric Secretion % Inhibition Acid Concentration 60-90” value [1] of the same molecule?
**A.** The value was 47%.

**Q.** And the “Gastric Secretion % Inhibition Acid Concentration 90-120” value [1]?
**A.** Its value is 48%.

**Q.** What about the “Gastric Secretion % Inhibition Vol. 0-30” value [1] of the same molecule?
**A.** Its value is 91%.

**Q.** And the “Gastric Secretion % Inhibition Vol. 30-60” value [1]?
**A.** The value was 92%.

**Q.** And the “Gastric Secretion % Inhibition Vol. 60-90” value [1]?
**A.** The value was 90%.

**Q.** What about the “Gastric Secretion % Inhibition Vol. 90-120” value [1] of the same molecule?
**A.** The value was 84%.

**Q.** And the “Growth Hormone Release Inhibition In Vitro” value [2]?
**A.** Its value is 4.38(2.15-11.90).

**Q.** Which “Growth Hormone Release Inhibition In Vitro” value [2] does the source give for `C[C@H]1C(=O)N[C@@H](Cc2c[nH]cn2)C(=O)N[C@H](Cc2c[nH]c3ccccc23)C(=O)N[C@@H](CCCCN)C(=O)N[C@@H](CO)C(=O)N[C@@H](Cc2ccc(O)cc2)C(=O)N1C` [Cyclo(N--Me--Ala--His--D-Trp-- Lys--Ser--Tyr)] (cyclo(H[dW]KSY[NMeA])) here?
**A.** The value was 0.38(0.16-0.75).

**Q.** How did the “Gastric Secretion % Inhibition Acid Concentration 0-30” value [1] turn out when `C[C@@H]1C(=O)N[C@@H](Cc2ccccc2)C(=O)N[C@H](Cc2c[nH]c3ccccc23)C(=O)N[C@@H](CCCCN)C(=O)N[C@@H]([C@@H](C)O)C(=O)N[C@@H](Cc2ccccc2)C(=O)N1C` [Cyclo(N--Me--D-Ala-- Phe--D-Trp-- Lys--Thr--Phe)] (cyclo(F[dNMeA]F[dW]KT)) was run?
**A.** The value was 12%.

**Q.** And the “Gastric Secretion % Inhibition Acid Concentration 30-60” value [1]?
**A.** Its value is 34%.

**Q.** What about the “Gastric Secretion % Inhibition Acid Concentration 60-90” value [1] of the same molecule?
**A.** The value was 9%.

**Q.** And the “Gastric Secretion % Inhibition Acid Concentration 90-120” value [1]?
**A.** The value was 0%.

**Q.** What about the “Gastric Secretion % Inhibition Vol. 0-30” value [1] of the same molecule?
**A.** Its value is 50%.

**Q.** What about the “Gastric Secretion % Inhibition Vol. 30-60” value [1] of the same molecule?
**A.** Its value is 84%.

**Q.** What about the “Gastric Secretion % Inhibition Vol. 60-90” value [1] of the same molecule?
**A.** The value was 0%.

**Q.** What about the “Gastric Secretion % Inhibition Vol. 90-120” value [1] of the same molecule?
**A.** The value was 0%.

**Q.** What about the “Growth Hormone Release Inhibition In Vitro” value [2] of the same molecule?
**A.** Its value is 2.13(0.83-6.00).

**Q.** `CC[C@H](C)[C@H]1C(=O)N[C@@H](Cc2ccccc2)C(=O)N[C@H](Cc2c[nH]c3ccccc23)C(=O)N[C@@H](CCCCN)C(=O)N[C@@H]([C@@H](C)O)C(=O)N[C@@H](Cc2ccccc2)C(=O)N1C` [Cyclo(N--Me--Ile--Phe--D-Trp-- Lys--Thr--Phe)] (cyclo(F[NMeI]F[dW]KT)) was tested. Which “Growth Hormone Release Inhibition In Vitro” value [2] did it give?
**A.** The value was 1.86(1.35-2.57).

**Q.** Which “Growth Hormone Release Inhibition In Vitro” value [2] does the source give for `CC(C)C[C@H]1C(=O)N[C@@H](Cc2ccccc2)C(=O)N[C@H](Cc2c[nH]c3ccccc23)C(=O)N[C@@H](CCCCN)C(=O)N[C@@H]([C@@H](C)O)C(=O)N[C@@H](Cc2ccccc2)C(=O)N1C` [Cyclo(N--Me--Leu--Phe--D-Trp-- Lys--Thr--Phe)] (cyclo(F[NMeL]F[dW]KT)) here?
**A.** Its value is 0.49(0.19-0.98).

**Q.** Which “Growth Hormone Release Inhibition In Vitro” value [2] does the source give for `C[C@@H](O)[C@@H]1NC(=O)[C@H](CCCCN)NC(=O)[C@@H](Cc2c[nH]c3ccccc23)NC(=O)[C@H](Cc2ccccc2)NC(=O)[C@H](Cc2ccccc2)N(C)C(=O)[C@H](Cc2ccccc2)NC1=O` [Cyclo(N--Me--Phe--Phe--D-Trp-- Lys--Thr--Phe)] (cyclo(F[NMeF]F[dW]KT)) here?
**A.** Its value is 13.3(9.6-18.1).

**Q.** For `C[C@H]1C(=O)N[C@@H](Cc2c[nH]cn2)C(=O)N[C@H](Cc2c[nH]c3ccccc23)C(=O)N[C@@H](CCCCN)C(=O)N[C@@H](CO)C(=O)N[C@@H](Cc2c[nH]c3ccccc23)C(=O)N1C` [Cyclo--(N--Me--Ala--His--D-Trp-- Lys--Ser--Trp)] (cyclo(H[dW]KSW[NMeA])), which “Growth Hormone Release Inhibition In Vitro” value [2] is on record?
**A.** Its value is 1.45(0.9-2.06).

**Q.** How did the “Growth Hormone Release Inhibition In Vitro” value [2] turn out when `CC(C)[C@@H]1NC(=O)[C@H](CCCCN)NC(=O)[C@@H](Cc2c[nH]c3ccccc23)NC(=O)[C@H](Cc2ccc(O)cc2)NC(=O)[C@H](C)N(C)C(=O)[C@@H](Cc2ccccc2)NC1=O` [Cyclo--(N--Me--Ala--Tyr--D-Trp-- Lys--Val--D-Phe)] was run?
**A.** The value was 5.0(3.12-8.17).

**Q.** For `CC(C)[C@@H]1NC(=O)[C@H](CCCCN)NC(=O)[C@@H](Cc2c[nH]c3ccccc23)NC(=O)[C@H](Cc2ccc(O)cc2)NC(=O)[C@H](C)N(C)C(=O)[C@H](Cc2ccccc2)NC1=O` [Cyclo--(N--Me--Ala--Tyr--D-Trp-- Lys--Val--Phe)], which “Growth Hormone Release Inhibition In Vitro” value [2] is on record?
**A.** Its value is 52(35-75).

**Q.** How did the “Growth Hormone Release Inhibition In Vitro” value [2] turn out when `CC(C)[C@@H]1NC(=O)[C@H](CCCCN)NC(=O)[C@@H](Cc2c[nH]c3ccccc23)NC(=O)[C@H](Cc2ccc(O)cc2)NC(=O)[C@H](C)N(C)C(=O)[C@H](Cc2c[nH]c3ccccc23)NC1=O` [Cyclo--(N--Me--Ala--Tyr--D-Trp-- Lys--Val--Trp)] (cyclo(KVW[NMeA]Y[dW])) was run?
**A.** The value was 26.9(17.2-40.3).

**Q.** For `C[C@@H](O)[C@@H]1NC(=O)[C@H](CCCCN)NC(=O)[C@@H](Cc2c[nH]c3ccccc23)NC(=O)[C@H](Cc2ccccc2)NC(=O)CN(C)C(=O)[C@H](Cc2ccccc2)NC1=O` [Cyclo--(Sar--Phe--D-Trp-- Lys--Thr--Phe)] (cyclo(F[Sar]F[dW]KT)), which “Growth Hormone Release Inhibition In Vitro” value [2] is on record?
**A.** Its value is 1.47(0.93-2.3).

**Q.** “Cyclo--(N--Me--Ala--O--I--Phe--D-Trp-- Lys--Val--Phe)” was tested. Which “Growth Hormone Release Inhibition In Vitro” value [2] did it give?
**A.** The value was 13.9(9.5-20.0).

**Q.** How did the “Growth Hormone Release Inhibition In Vitro” value [2] turn out when “Cyclo--(N--Me--Ala--O--Phe--D-Trp-- Lys--Val--L--Trp)” was run?
**A.** Its value is 22.9(15.0-33.6).

**Q.** With “Cyclo--(N--Me--Ala--Phe--D-Trp-- Lys--The--O--I--Phe)” as the molecule, how does the “Growth Hormone Release Inhibition In Vitro” value [2] read?
**A.** The value was 12.1(5.2-23.4).

**Q.** For “Cyclo--(N--Me--OABU--Phe--D-Trp-- Lys--Thr--Phe)”, which “Growth Hormone Release Inhibition In Vitro” value [2] is on record?
**A.** Its value is 24.6(15.3-46.5).
